Literature values, collected in publication PMC11457607 (Oncoimmunology, 2024).

What was measured:
SSTR5 = settings: cyclic peptide agonist; in words
SSTR2 = settings: cyclic peptide agonist; in words
NETs = settings: local irradiation, clinical trials
[1] = clinical diagnostic dye, i.v.

In the case of DOTA-Tyr[3]-octreotate [DOTA-TATE], the “affinity to SSTR5” value (SSTR5) is given as “binds with a high affinity to SSTR2 and SSTR5” and the “affinity to SSTR2” value (SSTR2) is given as “high affinity to SSTR2”.

In the case of [^177Lu]Lu-DOTA-TATE, the “slowing progression of NETs” value (NETs) is given as “high specificity and efficacy in slowing the progression of NETs”.

In the case of `O=C1OC2(c3ccc(O)cc3Oc3cc(O)ccc32)c2ccccc21` [fluorescein], the “safety of intravenous injection” value [1] is listed as “without reported overt safety concerns”.
